Results reported in patent publication US20080131432A1, “Method of treating the chemotoxic effects of chemotherapeutic drugs on brain tissue” (University of Kentucky Research Foundation, priority 2005, published 2008).
“Also recorded” adds a separate entry of the source. Where a name gives a salt, the structure may show the parent alone.

Tests used:
[1] = system: p53, Bax, Bcl-xS, Bcl-xL, MnSOD in mitochondria; assay: Immunoblots of pro- and anti-apoptotic proteins in brain mitochondria; assay type: in vivo, mouse
Protocol: Perfused brain homogenates and isolated mitochondrial proteins were size-separated via 12.5% denaturing polyacrylamide gel electrophoresis (SDS-PAGE) and transferred to a nitrocellulose membrane. The membrane was blocked for 1 hour at room temperature in blocking solution consisting of 5% non-fat dried milk, 0.5% Tween-20 and Tris-buffered saline (TBST), pH 7.9. After blocking, the membrane was incubated overnight at 4° C. with primary antibodies against TNF α (Upstate, Lake Placid, N.Y.) and β-actin (Sigma, St. Louis, […].) in homogenate samples, or isolated mitochondria samples for p53 (Ab-11, Oncogene Research, Cambridge, Mass.), Bcl-xS/L (S-18), Bax (P-19) (Santa Cruz Biotechnology, Santa Cruz, Calif.), MnSOD (Upstate, Lake Placid, N.Y.), and glyceraldehyde-3-phosphate dehydrogenase (G-3-PDH, Trevigen, Gaithersburg, Md.) in blocking solution. The membrane was washed twice in TBST and incubated for 1 hour with horseradish peroxidase-conjugated secondary antibodies in blocking solution. After incubation with secondary antibodies, the membrane was washed twice with TBST and once in TBS (TBS without 0.5% Tween-20). Immunoreactivities of the protein bands were detected by enhanced chemiluminescence autoradiography (ECL, Amersham Phamacia Biotech, Arlington Heights, Ill.) as described by the manufacturer.
The final protein concentration was 20-40 mg/ml.

MnSOD, CuZnSOD = assay: MnSOD and CuZnSOD protein levels in brain homogenates (western blot); assay type: in vivo, mouse; conditions: wild-type and iNOSKO mice, 3 hours after ADR 20 mg/kg
Protocol: Brains were perfused, the cerebellum removed and the brain dissected from mice treated with i.p. ADR 20 mg/kg, or saline as a control, for 3 hours. Brains were placed in ice-cold 50 mM PBS, pH 7.4, containing the protease inhibitors 4 μg leupeptin, 4 μg pepstatin, and 5 μg aprotinin, washed and chopped in ice-cold PBS containing protease inhibitors. Tissues were homogenized with a Potter-Elvehjem glass homogenizer with a loose fitting Teflon® pestle, and protein concentration was determined by the Bradford assay (Bradford, 1976). Brain homogenate proteins were size-separated using denaturing sodium dodecyl sulfate-polyacrylamide gel electrophoresis (SDS-PAGE). Proteins (50 μg) were electrophoresed on 12.5% SDS-PAGE and transferred to a nitrocellulose membrane. The membrane was blocked for 1 hour at room temperature in blocking solution consisting of 5% non-fat dried milk, Tris-buffered saline (TBST; 10 mM Tris-HC, 150 mM NaCl, 0.05% Tween 20), pH 7.9. After blocking, the membrane was incubated overnight at 4° C. with primary antibodies against MnSOD (Upstate, Lake Placid, N.Y., USA), Cu/ZnSOD (Calbiochem, San Diego, Calif., USA) and β-actin (Sigma) in blocking solution. […] Immunoreactivities of the protein bands were detected by enhanced chemiluminescence autoradiography (ECL; Amersham Phamacia Biotech, Arlington Heights, Ill., USA) as described by the manufacturer.

3-nitrotyrosine = assay: Nitrotyrosine-adducted proteins in isolated brain mitochondria (slot blot); assay type: in vivo, mouse; conditions: 3 hours after ADR 20 mg/kg, hydrochloride
Protocol: 3-Nitrotyrosine levels, a peroxynitrite reaction product marker, were determined as described previously (Lauderback et al. 2001). Briefly, 5 μg isolated mitochondrial proteins were incubated with Laemmli sample buffer (0.125 M Trisma base, pH 6.8, 4% SDS, 20% glycerol) for 20 minutes, and then 250 ng protein were blotted onto the nitrocellulose membrane using a slot-blot apparatus. The membrane was rinsed with TBST buffer, blocked by incubation in the presence of 5% BSA, followed by incubation with rabbit polyclonal anti-nitrotyrosine antibody as primary antibody for 1 h. The membranes were washed with TBST buffer and further incubated with goat anti-rabbit horseradish peroxidase-conjugated secondary antibody for 1 h. After incubation with secondary antibody, the membrane was washed twice with TBST and once in TBS (TBS without 0.05% Tween-20). Immunoreactivities of the protein bands were detected by ECL (Amersham Phamacia Biotech) as described by the manufacturer. Blots were scanned with Adobe Photoshop and quantified by the densitometry method (Bio-Rad).

[2] = seventy-two hours after a single intraperitoneal injection of ADR; cited from earlier work
[3] = system: mitochondrial respiration complex II; assay: Brain mitochondrial respiration, complex II (succinate); assay type: in vivo, mouse; conditions: succinate as substrate, after ADR
Protocol: Mice were perfused via cardiac puncture with cold mitochondrial isolation buffer, the brain promptly removed, the cerebellum dissected away, and mitochondria immediately isolated from the freshly brain by a modification of the method described by Mattiazzi et al. (2002). Brain mitochondria were isolated in cold mitochondrial isolation buffer, containing 0.07 M sucrose, 0.22 M mannitol, 20 mM HEPES, 1 mM EGTA, and 1% bovine serum albumin, pH 7.2. Tissues were homogenized with a Dounce homogenizer and centrifuged at 1,500×g at 4° C. for 5 minutes before transferring the supernatant. The pellets were resuspended and centrifuged at 1,500×g at 4° C. for 5 minutes. […] Protein concentration of isolated mitochondria was determined by the Bradford assay (Bradford, 1976). […]
Mitochondrial respiration was determined using Clark-type polarographic oxygen sensors (Hansatech Instruments, Kings Lynn, Norfolk, UK) to measure the rate of oxygen consumption. […] Oxygen consumption was measured with either pyruvate (10 mM) plus malate (10 mM) or succinate (10 mM) as substrates for respiration from complex I or complex II in the absence of exogenous ADP (state II) and after addition of 300 mM ADP (state III respiration). […] Respiration control ratios (RCR) were calculated as the ratios of state III and state II respiration as described previously by Estabrook (1967). […]

iNOS mRNA = iNOS mRNA expression in brain tissues (RT-PCR); assay type: in vivo, mouse; conditions: wild-type mice, 3 hours after treatment, vs saline controls
Protocol: At 3 hours after treatment, mice were anesthetized and perfused via cardiac puncture with 0.1 M PBS, pH 7.4. The MRNA was isolated using the Micro-FastTrack 2.0 Kit (Invitrogen, Groningen, Netherlands) according to the manufacturer's instructions. The purified MRNA (5 μg) was subjected to reverse-transcription into first strand cDNA in each 20 μL of reaction mixture using the SuperScript III First-Strand Synthesis System for RT-PCR (Invitrogen) according to the manufacturer's instruction. A 25 μL PCR reaction contained 5 μL first strand cDNA, 0.1 U Taq DNA polymerase (Invitrogen), 10 mM 10×PCR buffer, 1.5 mM MgCl2, 2.5 mM dNTP and 10 pmol of each specific primer. PCR samples were subjected to the following conditions: 35 cycles for iNOS (94° C.: 1 minute; 65° C.: 1 minute; 72° C.: 1 minute), 32 cycles for β-actin (94° C.: […]; 55° C.: 30 s; 72° C.: 10 minutes), on a thermocycle (Perkin-Elmer). The primers with the target gene sequences were synthesized by Invitrogen. The primer sequence iNOS was 5′-CTGATGGTCAAGATCCAG-A-GGTCT-3′ (forward) and 5′-[…]-CTCT-3′(reverse), and the primer for β-actin was 5′-TGTTAC-CAACTGGGACGACA-3′ (forward) and 5′-CTGGGTCATCTT-TTCACCGT-3′ (reverse). After amplification, PCR products were subjected to 1% agarose gel electrophoresis, and visualized by ethidium bromide staining. The relative density of bands was analyzed under ultraviolet light (Bio-Rad). Experiments were repeated three times for reproducibility.

TNF α = TNF α levels in brain tissue homogenates (Western blot); assay type: in vivo, mouse; conditions: 3 hours after single dose, vs saline control
Protocol: Brains perfused with PBS were isolated and dissected from four groups of mice 3 hours post injection of a single dose of ADR, anti-TNF α antibody, anti-TNF α antibody immediately followed by ADR, or saline treated mice. Brain was isolated and placed in 0.1 M PBS, pH 7.4 containing protease inhibitors, 4 μg leupeptin, 4 μg pepstatin, and 5 μg aprotinin, washed and minced in ice-cold PBS containing protease inhibitors. […] Protein concentration of brain homogenate was determined by the Bradford assay (Bradford, 1976).
Perfused brain homogenates and isolated mitochondrial proteins were size-separated via 12.5% denaturing polyacrylamide gel electrophoresis (SDS-PAGE) and transferred to a nitrocellulose membrane. The membrane was blocked for 1 hour at room temperature in blocking solution consisting of 5% non-fat dried milk, 0.5% Tween-20 and Tris-buffered saline (TBST), pH 7.9. […] Immunoreactivities of the protein bands were detected by enhanced chemiluminescence autoradiography (ECL, Amersham Phamacia Biotech, Arlington Heights, Ill.) as described by the manufacturer.

cytochrome c = assay: Cytochrome c release from mitochondria to cytosol (Western blot); assay type: in vivo, mouse; conditions: brain tissue 3 hours after ADR
Protocol: Western blot analyses of cytochrome c and succinate dehydrogenase or β-actin were determined in mitochondrial or cytosolic fractions isolated from brain tissues 3 hours after mice were treated with ADR, and anti-TNF antibody immediately followed by ADR, and anti-TNF antibody, IgG, or saline as controls. Cytochrome c was decreased in mitochondria (*P<0.01) but increased cytosol after treatment with ADR or IgG followed by ADR. Succinate dehydrogenase or β-actin were used to normalize for protein loading. The Western blots shown a re a representative set of data of n=3 separate sets from individual animals. Quantification of all the data

[4] = after ADR 20 mg/kg, 3-72 hours, vs saline, hydrochloride
[5] = after ADR, any time point studied

COc1cccc2c1C(=O)c1c(O)c3c(c(O)c1C2=O)C[C@@](O)(C(=O)CO)C[C@@H]3O[C@H]1C[C@H](N)[C@H](O)[C@H](C)O1 [ADR, Doxorubicin hydrochloride]
Bax level in brain mitochondria [1, 4]: increased with a similar kinetics to that of p53; also recorded: increased at 3 and 6 hours; also recorded: increase in protein density
p53 level in brain mitochondria [1, 4]: increased in mitochondria early times after ADR treatment (3, 6, 24 hours), then declined at 48, and 72 hours; also recorded: significantly increased at 3, 6, and 24 hours; also recorded: increase in protein density
Bcl-xS level in brain mitochondria [1, 5]: no significant changes
MnSOD level in brain mitochondria [1, 5]: no significant changes
CuZnSOD protein level in brain homogenates (MnSOD, CuZnSOD): no change
MnSOD protein level in brain homogenates (MnSOD, CuZnSOD): no change
Tyrosine-nitrated proteins in brain mitochondria (3-nitrotyrosine; iNOSKO mice): no difference with controls
Tyrosine-nitrated proteins in brain mitochondria (3-nitrotyrosine; wild-type mice): significantly increased protein nitration
Levels of protein oxidation and lipid peroxidation in brain tissues [2]: significant increase
Brain mitochondrial respiration complex II [3]: no effect
iNOS mRNA levels in brain tissues (iNOS mRNA): significantly increased
TNF α levels in brain tissue homogenates (TNF α): significantly increased
Cytochrome c in cytosolic fraction (cytochrome c): increased
Cytochrome c in mitochondrial fraction (cytochrome c): decreased
